The values below come from paper PMC6563050, “Involvement of TREK-1 Channel in Cell Viability of H9c2 Rat Cardiomyoblasts Affected by Bupivacaine and Lipid Emulsion” (Cells, 2019).

In the assay the target is T1, TREK-1 (TWIK-related potassium channel-1) (Rattus norvegicus, UniProt Q920B6).
T1 construct: gene Kcnk2
T1 sequence (Q920B6 1-426): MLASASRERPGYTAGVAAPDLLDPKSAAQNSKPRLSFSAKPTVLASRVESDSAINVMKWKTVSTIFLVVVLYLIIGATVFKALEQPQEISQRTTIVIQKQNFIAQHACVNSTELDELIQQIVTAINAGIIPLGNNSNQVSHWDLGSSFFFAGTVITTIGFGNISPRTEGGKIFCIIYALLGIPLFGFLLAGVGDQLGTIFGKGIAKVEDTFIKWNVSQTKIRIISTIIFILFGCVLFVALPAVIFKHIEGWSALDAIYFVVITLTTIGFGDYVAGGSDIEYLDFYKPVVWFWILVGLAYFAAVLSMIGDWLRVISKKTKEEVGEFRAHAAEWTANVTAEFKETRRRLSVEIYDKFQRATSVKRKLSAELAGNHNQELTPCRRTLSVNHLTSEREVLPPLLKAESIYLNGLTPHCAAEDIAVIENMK
The assay can be described thus: whole-cell and inside-out single-channel patch clamp of TREK-1 overexpressed in HEK-293 cells. Format: cell-based.

For the compound `CCCCN1CCCCC1C(=O)Nc1c(C)cccc1C` (stereo not shown) [bupivacaine], half-maximal inhibition (IC50) required 302 ± 17.6 µM.

Usually IC50 stands for the point on the concentration scale where inhibition reaches its midpoint.
